Where two headings read alike, the source gives them in different places.
Tests used:
[1] = target: CCR5 (Homo sapiens, UniProt P51681); experiment: β-arrestin selectivity assay, CCR5; format: cell-based
[2] = test system: 4T-1-luc cells; format: in vivo; details: for bioluminescence intensity of lung: Day32 after inoculation, ex vivo; for total number of metastasis found by the ex-vivo studies: control group 10; for Metastasis on Liver, mice with metastasis / Metastasis on Liver, total number / Metastasis on Lung, mice with metastasis / Metastasis on Lung, total number / Metastasis on ribs, mice with metastasis / Metastasis on ribs, total number: ex-vivo
Experimental: Design of the in vivo study: A total of 44 female BALB/c mice (12 mice for maximal tolerance dose (MTD) study; 32 mice for efficacy study) were used in the 4T-1-Luc study. The animals were specific pathogen free and approximately 4-5 weeks old at the initiation of the study.
Murine breast carcinoma cells 4T-1-luc cells used in this study, were cultured in a 37° C. incubator containing 5% CO2 with 10% FBS and 2 μg/mL puromycin in RPMI1640 medium. The cells were sub-cultured within 10 passages before inoculated into the mice. 2*10^5 4T-1-luc cells suspended in 20 uL PBS were orthotopically injected into the 4th fat pat on the right side of each mouse. Before inoculation, mice were pre-anesthetized with 30 mg/kg Zoletil mixed with 10 mg/kg Xylazine and kept anesthetized with 3-4% isoflurane. Injected subcutaneously 20 mg/kg Tolfedine as painkillers once a day for 3 days. The day of cell inoculation was denoted as Day0. On Day3, 16 bearing-tumor mice were randomized into 4 groups (4 mice per group) according to body weight and BLI signal. The information of the preparation of Hit 1 dosing solution is as follow:
(§1) For 2-({6-phenylthieno[2,3-d]pyrimidin-4-yl}oxy)benzamide (Hit1, MIC5022) 5 mg/kg dose, the preparation was like that: weighed 2.5 mg of Hit 1, added in 0.50 ml of ethanol, vortex or magnetic stirring enough to mix well (all compound dissolved will be better), added in 2.00 ml of PEG400, vortex or magnetic stirring until getting a clear solution (no more than 60° C. water base ultrasonicate may be needed), added 2.50 ml of water to get clear solution. The concentration was 0.5 mg/ml, the storage condition was at 4C temperature and the preparation frequency was each 5 days.
as §1, with “MIC5022) 30” for “MIC5022) 5”, “weighed 15” for “weighed 2.5”, “was 3” for “was 0.5”, “4C temperature,” for “4C temperature”
The concentration was 15 mg/ml, the storage condition was at 4C temperature, and the preparation frequency was each 5 days.
Each mouse has been observed for changes in general appearance and behavior every day for 4 weeks after grouping. The abnormal phenomena were recorded.
Body weight: Mice were measured and recorded twice a week after grouping, and during the dose period. Animals were also weighed in the event of accidental death or near-death euthanasia. Tumor volume: The tumor volume (V) was calculated as follows: V=(length×width2)/2. Tumor volume was measured twice per week. Tumor growth inhibition (TGI), TGI=(1−(T/C)×100%; T and C as the mean tumor volumes of the treatment and control groups on the measurement day.
The individual relative tumor volume (RTV) was calculated as follows: RTV=Vt/V0, where Vt was the volume on each day, and V0 was the volume at the beginning of the treatment. IVIS imaging: We used IVIS® In Vivo Imaging Systems (PerkinElmer, Waltham, MA) which allow high sensitivity and high resolution in vivo BLI and fluorescence imaging (FLI) across a wide range of wavelengths. Animals were imaged up to five at a time under 3-4% isoflurane gas anesthesia. Each mouse has been injected with D-Luciferin and imaged 10-15 minutes after the injection. BLI signal was quantified in regions of interest (ROIs) drawn around tumors or tissues ex vivo and the signal is expressed as photons per second, representing the flux radiating omni-directionally from the user-defined region […] post grouping (Day3, Day10, Day14, Day17, Day21, Day24, Day28 and Day31).

[3] = test system: CCL2 release; details: Homo sapiens, Keratinocyte, read-out: EC50, CCL2 release
Experimental: For this purpose a model for the inhibition of CCL2 release from IL-4, IL-13, IL-22 and IFNγ-stimulated primary human keratinocytes (Eczematous inflammation) was used and also an assay for the inhibition of IL-8 release from IL-17A and TNFα (Psoriatic inflammation). […] Finally, migration assay by MB231cell line was performed.

[4] = G2 5 mg/kg, Day31 after inoculation
[5] = G3 30 mg/kg, Day31 after inoculation
[6] = G4 150 mg/kg, Day31 after inoculation

Chain of CCR5 (P51681 whole entry): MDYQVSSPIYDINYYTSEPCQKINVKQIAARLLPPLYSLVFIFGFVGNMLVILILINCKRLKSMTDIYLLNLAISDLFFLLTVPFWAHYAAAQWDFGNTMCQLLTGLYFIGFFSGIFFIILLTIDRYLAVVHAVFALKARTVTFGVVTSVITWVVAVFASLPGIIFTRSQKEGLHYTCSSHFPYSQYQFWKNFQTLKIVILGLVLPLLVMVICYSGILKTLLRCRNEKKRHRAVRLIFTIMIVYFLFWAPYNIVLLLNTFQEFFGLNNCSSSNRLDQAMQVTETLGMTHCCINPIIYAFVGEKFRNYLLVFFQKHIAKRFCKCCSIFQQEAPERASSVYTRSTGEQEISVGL

NC(=O)c1ccccc1Oc1ncnc2sc(-c3ccccc3)cc12 [Hit 1, 2-({6-phenylthieno[2,3-d]pyrimidin-4-yl}oxy)benzamide]
Hill coefficient [1]: 1.9
IC50 [1]: 1900 nM
bioluminescence intensity of lung ([2]; 5 mg/kg): 1.07E+06
total number of metastasis found by the ex-vivo studies ([2]; 5 mg/kg): 3
bioluminescence intensity of lung ([2]; 30 mg/kg): 1.66E+06
total number of metastasis found by the ex-vivo studies ([2]; 30 mg/kg): 2
bioluminescence intensity of lung ([2]; 150 mg/kg): 1.56E+06
total number of metastasis found by the ex-vivo studies ([2]; 150 mg/kg): 5
reduction of the spread of the tumor (bioluminescence vs control) ([2]; 5, 30, 150 mg/kg, Day31): 6-10 folds
metastasis in liver and ribs ([2]; 5, 30, 150 mg/kg, ex-vivo images and manual counting): completely eliminated
reduction of metastasis development (lung bioluminescence vs control) ([2]; 5, 30 and 150 mg/kg, Day32): about five
Animal bioluminescence imaging intensity, Mean ([2]; G2 5 mg/kg p.o. QD, Day 3): 2.07E+07 10^8 p/s
Animal bioluminescence imaging intensity, Mean ([2]; G2 5 mg/kg p.o. QD, Day 10): 1.56E+08 10^8 p/s
Animal bioluminescence imaging intensity, Mean ([2]; G2 5 mg/kg p.o. QD, Day 17): 3.39E+08 10^8 p/s
Animal bioluminescence imaging intensity, Mean ([2]; G2 5 mg/kg p.o. QD, Day 21): 4.78E+08 10^8 p/s
Animal bioluminescence imaging intensity, Mean ([2]; G2 5 mg/kg p.o. QD, Day 24): 3.52E+08 10^8 p/s
Animal bioluminescence imaging intensity, Mean ([2]; G2 5 mg/kg p.o. QD, Day 28): 4.34E+08 10^8 p/s
Animal bioluminescence imaging intensity, Mean ([2]; G2 5 mg/kg p.o. QD, Day 31): 5.01E+08 10^8 p/s
bioluminescence intensity ([2]; G2 5 mg/kg, Day3 after inoculation): 0.21*10^7±0.056*10^8 p/s
tumor volume (TV) ([2]; G2 5 mg/kg, Day10 after inoculation): 86.53±6.03 mm^3
bioluminescence intensity [2, 4]: 5.01*10^8±2.67*10^8 p/s
relative tumor volume (RTV) [2, 4]: 5.99±0.61
tumor volume (TV) [2, 4]: 515.90±53.18 mm^3
Metastasis on Liver, mice with metastasis ([2]; G2 (5 mg/kg)): (0/4 mice)
Metastasis on Liver, total number ([2]; G2 (5 mg/kg)): totally 0
Metastasis on Lung, mice with metastasis ([2]; G2 (5 mg/kg)): 2/4 and (2/4 mice)
Metastasis on Lung, total number ([2]; G2 (5 mg/kg)): totally 3
Metastasis on ribs, mice with metastasis ([2]; G2 (5 mg/kg)): (0/4 mice)
Metastasis on ribs, total number ([2]; G2 (5 mg/kg)): totally 0
TV, RTV and TW compared with G1 ([2]; G2, G3 and G4 (5, 30, 150 mg/kg), p>0.05): no significant differences
tumor weight (TW) ([2]; G3 30 mg/kg): 0.95 ± 0.16 g
Animal bioluminescence imaging intensity, Mean ([2]; G3 30 mg/kg p.o. QD, Day 3): 2.31E+07 10^8 p/s
Animal bioluminescence imaging intensity, Mean ([2]; G3 30 mg/kg p.o. QD, Day 10): 2.71E+08 10^8 p/s
Animal bioluminescence imaging intensity, Mean ([2]; G3 30 mg/kg p.o. QD, Day 17): 1.32E+08 10^8 p/s
Animal bioluminescence imaging intensity, Mean ([2]; G3 30 mg/kg p.o. QD, Day 21): 1.30E+08 10^8 p/s
Animal bioluminescence imaging intensity, Mean ([2]; G3 30 mg/kg p.o. QD, Day 24): 2.08E+08 10^8 p/s
Animal bioluminescence imaging intensity, Mean ([2]; G3 30 mg/kg p.o. QD, Day 28): 4.49E+08 10^8 p/s
Animal bioluminescence imaging intensity, Mean ([2]; G3 30 mg/kg p.o. QD, Day 31): 3.26E+08 10^8 p/s
bioluminescence intensity ([2]; G3 30 mg/kg, Day3 after inoculation): 0.23*10^7±0.075*10^8 p/s
tumor volume (TV) ([2]; G3 30 mg/kg, Day10 after inoculation): 90.30±7.67 mm^3
bioluminescence intensity [2, 5]: 3.26*10^8±0.89*10^8 p/s
relative tumor volume (RTV) [2, 5]: 5.33±0.64
tumor volume (TV) [2, 5]: 489.69±85.03 mm^3
Metastasis on Liver, mice with metastasis ([2]; G3 (30 mg/kg)): (0/4 mice)
Metastasis on Liver, total number ([2]; G3 (30 mg/kg)): totally 0
Metastasis on Lung, mice with metastasis ([2]; G3 (30 mg/kg)): 2/4 and (2/4 mice)
Metastasis on Lung, total number ([2]; G3 (30 mg/kg)): totally 2
Metastasis on ribs, mice with metastasis ([2]; G3 (30 mg/kg)): (0/4 mice)
Metastasis on ribs, total number ([2]; G3 (30 mg/kg)): totally 0
RTV course ([2]; G3 group 30 mg/kg, after day 24): clear decrease in the RTV
tumor weight (TW) ([2]; G4 150 mg/kg): 1.05 ± 0.19 g
bioluminescence intensity ([2]; G4 150 mg/kg, Day3 after inoculation): 0.21*10^7±0.054*10^8 p/s
tumor volume (TV) ([2]; G4 150 mg/kg, Day10 after inoculation): 85.22±10.26 mm^3
bioluminescence intensity [2, 6]: 5.08*10^8±2.16*10^8 p/s
relative tumor volume (RTV) [2, 6]: 5.92±0.63
tumor volume (TV) [2, 6]: 515.66±98.37 mm^3
Metastasis on Liver, mice with metastasis ([2]; G4 (150 mg/kg)): (0/4 mice)
Metastasis on Liver, total number ([2]; G4 (150 mg/kg)): totally 0
Metastasis on Lung, total number ([2]; G4 (150 mg/kg)): totally 5
Metastasis on ribs, mice with metastasis ([2]; G4 (150 mg/kg)): (0/4 mice)
Metastasis on ribs, total number ([2]; G4 (150 mg/kg)): totally 0
Animal bioluminescence imaging intensity, Mean ([2]; Q4 150 mg/kg p.o. QD, Day 3): 2.07E+07 10^8 p/s
Animal bioluminescence imaging intensity, Mean ([2]; Q4 150 mg/kg p.o. QD, Day 10): 4.97E+07 10^8 p/s
Animal bioluminescence imaging intensity, Mean ([2]; Q4 150 mg/kg p.o. QD, Day 15): 1.33E+08 10^8 p/s
Animal bioluminescence imaging intensity, Mean ([2]; Q4 150 mg/kg p.o. QD, Day 17): 2.43E+08 10^8 p/s
Animal bioluminescence imaging intensity, Mean ([2]; Q4 150 mg/kg p.o. QD, Day 21): 2.94E+08 10^8 p/s
Animal bioluminescence imaging intensity, Mean ([2]; Q4 150 mg/kg p.o. QD, Day 24): 3.20E+08 10^8 p/s
Animal bioluminescence imaging intensity, Mean ([2]; Q4 150 mg/kg p.o. QD, Day 28): 5.27E+08 10^8 p/s
Animal bioluminescence imaging intensity, Mean ([2]; Q4 150 mg/kg p.o. QD, Day 31): 5.08E+08 10^8 p/s
death or abnormal behavior during the experiment ([2]; efficacy study, 5, 30, 150 mg/kg p.o. QD): no mice death or abnormal behavior of mice
safety conclusion ([2]; mouse, in vivo): relatively biologically safe
EC50 [3]: 411 nM

Source: patent US20250206754A1, “PAN-CHEMOKINE ANTAGONISTS FOR USE IN TREATING CANCER AND IMMUNE DISORDERS” ("Micar Innovation" LTD., priority 2022, published 2025)
